Test system: NQO1 specific enzyme activity in BEAS-2B cells (marker for NRF2 activation)
Assay: Beas2B NQO1 MTT Assay
Type: cell-based
Conditions: Homo sapiens, NQO1 specific activity induction, 48 hours with compound
Text: NAD(P)H:quinone oxidoreductase 1 (NQO1), also called DT diaphorase, is a homodimeric FAD-containing enzyme that catalyses obligatory NAD(P)H-dependent two-electron reductions of quinones and protects cells against the toxic and neoplastic effects of free radicals and reactive oxygen species arising from one-electron reductions. The transcription of NQO1 is finely regulated by NRF2, and thus NQO1 activity is a good marker for NRF2 activation. On day one, frozen BEAS-2B cells (ATCC) were thawed in a water bath, counted, and re-suspended at a concentration of 250,000 cells/mL. Fifty microliters of cells were plated in 384 well black clear-bottomed plates. Plates were incubated at 37° C., 5% CO2 overnight. On day two, plates were centrifuged and 50 nL of compound or controls were added to the cells. Plates were then incubated at 37° C., 5% CO2 for 48 hours. On day four, medium was aspirated from the plate and crude cell lysates were made by adding 13 uL of 1× Cell Signaling Technologies lysis buffer with 1 Complete, Mini, EDTA-free Protease Inhibitor Tablet (Roche) for each 10 mL of lysis buffer. After lysis plates were incubated for 20 minutes at room temperature. Two microliters of lysate were removed for use in Cell Titer Glo assay (Promega) and MTT cocktail was prepared (Prochaska et. al. 1998) for measurement of NQO1 activity. Fifty microliters of MTT cocktail was added to each well, plate was centrifuged, and analysed on an Envision plate reader (Perkin Elmer) using Absorbance 570 nm label for 30 minutes. Product formation was measured kinetically and the pEC50 of NQO1 specific activity induction was calculated by plotting the change in absorbance (Delta OD/min) versus the log of compound concentration followed by 3-parameter fitting.
EC50s <1 nM (+++++), EC50s 10 nM-1 nM (++++), EC50s 10-100 nM (+++), EC50s 100 nM-1 μM (++), EC50s 1-10 μM (+), EC50s >10 μM (−), or were not determined (ND).

SMILES | EC50
C[C@H](Oc1cccc(-c2cccc(-n3ccc(C(=O)O)c3[C@@H]3C[C@H]3c3cn(C)nn3)c2)c1)C1CCCCC1 [Example 18, 1-(3′-((S)-1-cyclohexylethoxy)-[1,1′-biphenyl]-3-yl)-2-((1R,2R)-2-(1-methyl-1H-1,2,3-triazol-4-yl)cyclopropyl)-1H-pyrrole-3-carboxylic acid] | 10 to 100 nM
C[C@H]1Cc2ccc(C(F)(F)F)cc2S(=O)(=O)N(Cc2cccc(-n3ccc(C(=O)O)c3[C@@H]3C[C@H]3c3cn(C)nn3)c2)C1 [Example 4, 1-(3-(((S)-4-methyl-1,1-dioxido-8-(trifluoromethyl)-4,5-dihydrobenzo[f][1,2]thiazepin-2(3H)-yl)methyl)phenyl)-2-((1R,2R)-2-(1-methyl-1H-1,2,3-triazol-4-yl)cyclopropyl)-1H-pyrrole-3-carboxylic acid] | 1 to 10 nM
CCC[C@@H]1CCCCN1C(=O)c1cccc(-c2cccc(-n3ccc(C(=O)O)c3[C@@H]3C[C@H]3c3cn(C)nn3)c2)c1F [Example 16, 1-(2′-fluoro-3′-((R)-2-propylpiperidine-1-carbonyl)-[1,1′-biphenyl]-3-yl)-2-((1R,2R)-2-(1-methyl-1H-1,2,3-triazol-4-yl)cyclopropyl)-1H-pyrrole-3-carboxylic acid] | 1 to 10 nM

— patent publication US20200031820A1, “3-CARBOXYLIC ACID PYRROLES AS NRF2 REGULATORS” (GLSXOSMITHKLINE INTELLECTUAL PROPERTY DEVELOPMENT LIMITED, priority 2016, published 2020)
